Test results reported in patent US6630123B1, “Method to enhance tissue accumulation of radiolabeled compounds” (Board of Supervisors of Louisiana State University and …, priority 1997, dated 2003).
Where no end group is shown, it is not given here.

Experiments:
[1] = tested on: IMR-32 cells; assay: Nuclear translocation, Percoll density gradient fractionation; format: cell-based, human
Protocol: The cells were washed twice in media at 4° C. and resuspended in cold isotonic sucrose. The labeled cells were passed through a ballbearing homogenizer three times to disrupt cell membranes while leaving approximately 95% of the cell nuclei intact, according to the method of Balch et al., Arch. Biochem. Biophys., vol. 240, p. […] The cell homogenate was mixed with Percoll to give a final concentration of 0.292% Percoll and spun at 20,400 rpm in a Beckman 40.2 rotor for 45 min to generate a density gradient. Density marker beads (Pharmacia) were used to indicate density levels in the tube. The contents of the tube were fractionated in an ISCO Density Gradient Fractionator. The resulting tubes were assayed for content of radiolabeled somatostatin or analogs, DNA to indicate nuclei, protein, the plasma membrane marker 5′-nucleotidase, and the lysosome marker N-acetylglucosaminidase. The usual assumption was made that the radioactivity measured in fractions rich in a certain cell component was in fact associated with that component; e.g., the radioactivity measured in a fraction rich in plasma membrane was due to association of the radiolabeled compound with the plasma membrane.

[2] = tested on: tumor in the left side of the neck (metastatic small cell carcinoma); settings: in vivo
Protocol: During and after each administration of the last eight doses, a tumor in the left side of the neck was monitored for radioligand uptake with an ion chamber survey meter, a Victoreen 450P ion chamber, which measures external gamma dose rates. Administration of the initial seven doses were by bolus inject ion. The last three doses were delivered by infusion with various activities of radioligand.
The external gamma dose rates from radioligand accumulation in the neck tumor area were measured immediately and 24 hr after injection. After the treatment of the fifth month, the patient was monitored for radioligand uptake for an extended period—at 2, 4, and 8 days after the injection.
Four months after the final bolus dose, the first dose by infusion (“Infusion 1”) was administered. A dose equivalent to the previous bolus dose (175.9 mCi) was given, but the radioligand was administered by infusion over 72 hr at a constant rate of 2.5 mCi/hr.
One month later, in “Infusion 2,” the total dose was increased to 389.2 mCi. By infusion, 189.8 mCi of the radioligand was given over the first 24 hr, 108.6 mCi over the second 24 hr, and 90.8 mCi over the third 24 hr. For each 24 hr period, the infusion rate was kept constant.
One month later, a third dose was administered by infusion (“Infusion 3”). A dose of 301 mCi was infused the first 24 hr period. […]

[3] = tested on: neuroendocrine cancers expressing the somatostatin receptor; assay: Pilot clinical trial of monthly 180 mCi doses; format: in vivo, human; settings: ten patients
Protocol: For six months, pilot clinical trials were conducted in ten human patients with progressive metastatic indolent and symptomatic neuroendocrine cancers expressing the somatostatin receptor. […] The first monthly dose was a bolus injection of 180 mCi. The second monthly dose was infusion of 180 mCi over 72 hr. The third monthly dose was infusion of 180 mCi over 24 hr. Thereafter, all monthly doses were infusion of 180 mCi over 24 hr. Clinical benefits (as evidenced by reduced pain, weight gain, reduced malaise, etc.) occurred in 6 of the 10 neuroendocrine (carcinoid/islet cell) patients. Partial radiographic responses (greater than 50% reduction in the product of perpendicular tumor diameters) occurred in 2 patients, and significant tumor necrosis developed in 7 of the 10 neuroendocrine patients. Treatment-related toxicity included 2 Grade III platelet, 1 Grade II WBC, 1 Grade I WBC and 2 Grade I Hb on the NCI (National Cancer Institute) grading scale.

[4] = tested on: ZR-75-1 breast cancer cell line; assay: Specific binding of radiolabeled estradiol with time, ZR-75-1; format: cell-based, human
Protocol: (§1) To follow the time of uptake of a steroid hormone, three cell lines were incubated with a radiolabeled estrogen using procedures similar to those of Example 2. Three breast cancer cell lines were used; MCF-7 (ATCC No. HTB-22), T47D (ATCC No. HTB-133), and ZR-75-1 (ATCC No. CRL-1500). The estrogen used was 17-β-estradiol, the major secreted estrogen in humans. The radiolabeled compound was ^125I-17-β-estradiol, which was either purchased from New England Nuclear or synthesized by the following procedure: A 10 ml Sephadex G-10 column was equilibrated for 1 hr with 0.1 M PBS. A solution was prepared of 12.5 μg estradiol conjugate (BL-43), 25 μl methanol, 50 μl 0.05 M phosphate buffer pH 7.5, 3 mCi Na^125I, and 25 μl of a mixture of 10 mg chloramine-T and 10 ml 0.05 M phosphate buffer. After mixing for 40 sec, 25 μl of sodium metabisulfite 20 mg/10 ml 0.05 M Phosphate buffer was added and mixed an additional 40 sec. The mixture was then added to the Sephadex column and eluted first with 0.1 M PBS. Finally, the radiolabeled estradiol was eluted with 0.1 M PBS and 1,4 Dioxane (70:30).
(§2) The standard binding procedure described in Example 2 was used except that radiolabeled estradiol was used as the ligand with 1000× excess non-radioactive estradiol as the competitor. Unlike peptides that initially must bind on the plasma membrane, steroids bind only to intracellular receptors. Thus no radioactivity on the membrane should be found.

[5] = tested on: T47D breast cancer cell line; assay: Specific binding of radiolabeled estradiol with time, T47D; format: cell-based, human; settings: T-47D
Protocol: as §1, §2

[6] = tested on: MCF-7 breast cancer cell line; assay: Specific binding of radiolabeled estradiol with time, MCF-7; format: cell-based, human
Protocol: as §1, §2

[7] = tested on: human placental vein discs (angiogenic vascular tissue); assay: Human Placental Vein Angiogenesis Model; format: cell-based; settings: 50 μCi/mL (or equivalent amounts)
Excerpt: Watson et al., “Up-Regulation of Somatostatin Receptor Subtype 2. (SST-2) mRNA Occurs During the Transformation of Human Endothelium to the Angiogenic Phenotype,” Paper Presented at the 12th International Symposium on Regulatory Peptides, Copenhagen, Denmark, September 1996; J. C. Watson et al., “SST-2 Gene Expression Appears During Human Angiogenesis,” Regulatory Peptides, vol. 64, p. 206 (Abstract) (1996); and J. C. Watson et al., “Breast Cancer Increases Initiation of Angiogenesis Without Accelerating Neovessel Growth Rate,” Surgery, vol. 122, pp. 508-14 (1997). Human placental veins were cut into discs of 2 mm diameter and were incorporated into a 0.3% fibrinogen gel. This gel was then overlaid with tissue culture media containing 10-20% fetal calf serum (FCS). Under normal conditions, endothelial cords will begin to sprout from the transected cut edge of the vein discs within six days.
These vein discs were placed into wells of three separate culture plates. One culture plate, the control sample, was allowed to grow without treatment. […] The discs were then incubated for fourteen days. After 14 days the culture plates were examined for the number of wells in which angiogenic growth was initiated. […] The molar concentration of the radiolabeled somatostatin analog added to the culture plates was in the femtomolar range (10^−15). This concentration is 1000× or more below the concentration of unlabeled somatostatin analog that is known to inhibit angiogenesis; a concentration of 10^−5 M to 10^−8 M. Thus any effect was due to the radiolabel and not just the presence of the somatostatin analog. […] Only the radiolabel connected to the somatostatin analog would be incorporated into the DNA. Thus the greater decrease is due to this incorporation and the Auger emission on DNA.
Using a digital image analyzer, the mean area of the sprouting tissue surrounding the discs was measured.
To measure the growth rate of angiogenic vascular tissue, every two days during the 14-day incubation period, the length of sprouts were measured. […]

[8] = cited from earlier work
[9] = tested on: human placental-derived vascular endothelial cells; assay: Binding and internalization in angiogenic vascular endothelial cells; format: cell-based; settings: 500,000 cells, 500,000 cpm, acid wash, FIG. 17
Excerpt: Human placental-derived vascular endothelial cells were used to assay for cell binding of the somatostatin analog, ^125I-JIC-2D. The radioligand, a somatostatin analog, ^125I-JIC-2D, was made by solid phase peptide synthesis as described in U.S. Pat. No. 5,597,894. This peptide has an amino acid sequence of the following: D-Lys-D-Tyr-D-Lys-D-Tyr-D-Lys-C[Cys-Phe-D-Trp-Lys-Thr-Cys]-Thr-NH2. The cells were obtained by growing discs of human placental veins in fibrinclots for 14 days. […] These discs and their angiogenic sprouts are harvested mechanically and dissociated by vortexing. The vein discs are then discarded and the endothelial cells pooled. Cells were harvested, counted with a hemocytometer, and resuspended in binding buffer (Minimum Essential Medium (MEM), 10 mM Hepes, 0.01% BSA). A standard assay used 500,000 cells in 1 ml of binding buffer. […] At the termination of the experiment, the incubation medium was removed, the cells were rinsed twice with Hanks balanced salt solution (HBSS), and the radioactivity in the cells determined using a gamma counter. This level of radioactivity represents total binding, which includes both membrane-bound and internalized fractions. Specific binding was determined by calculating the difference in the levels of measured radioactivity without the unlabeled competitor minus the radioactivity with the unlabeled competitor. […]

^125I-somatostatin: radiolabeled native somatostatin, very short-lived peptide (AGCKNFFWKTFTSC; ends and bridges not checked; also: 125I label, site not given here; UniProt P61278 103-116, looked up)
cellular distribution of radioactivity (membrane vs nuclear fractions) ([1]; 1 hr incubation): both membrane binding and small amounts of nuclear binding | cellular distribution of radioactivity (membrane vs nuclear fractions) ([1]; 4 hr incubation): plasma membrane binding appeared to have peaked and the nuclear fraction was dissipating | cellular distribution of radioactivity (membrane vs nuclear fractions) ([1]; 24 hr incubation): essentially no plasma membrane or nuclear binding was seen

C[C@@H](O)[C@@H]1NC(=O)[C@H](CCCCN)NC(=O)[C@@H](Cc2c[nH]c3ccccc23)NC(=O)[C@H](Cc2ccccc2)NC(=O)[C@@H](NC(=O)[C@@H](Cc2ccccc2)NC(=O)CN2CCN3CCN(CC(=O)O)CC(=O)[O][111In]([O]C(=O)C3)[O]C(=O)C2)CSSC[C@@H](C(=O)N[C@H](CO)[C@@H](C)O)NC1=O [^111In-pentetreotide, ^111In-DTPA-D-Phe^1-octreotide]
half-life of exponential decay of tumor radioactivity (approached physical half-life of the radioligand) ([2]; female, human): ~67.3 h | persistence of tumor foci on gamma camera scintigraphy [2]: still identifiable by gamma scintigraphy thirteen days after completion of the last infusion dose | Treatment-related toxicity: Grade I Hb (NCI scale), number of cases [3]: 2 | Treatment-related toxicity: Grade I WBC (NCI scale), number of cases [3]: 1 | Treatment-related toxicity: Grade II WBC (NCI scale), number of cases [3]: 1 | Treatment-related toxicity: Grade III platelet (NCI scale), number of cases [3]: 2

^125I-17-β-estradiol
Specific Binding ([4]; ZR-75-1, 1 Hr): 4102 CPM | Specific Binding ([4]; ZR-75-1, 4 Hr): 4865 CPM | Specific Binding ([4]; ZR-75-1, 24 Hr): 3370 CPM | Specific Binding ([4]; ZR-75-1, 48 Hr): 3057 CPM | Specific Binding ([5]; 1 Hr): 401 CPM | Specific Binding ([5]; 4 Hr): 506 CPM | Specific Binding ([5]; 24 Hr): 532 CPM | Specific Binding ([5]; 48 Hr): 455 CPM | Specific Binding ([6]; MCF-7, 1 Hr): 1605 CPM | Specific Binding ([6]; MCF-7, 4 Hr): 2253 CPM | Specific Binding ([6]; MCF-7, 24 Hr): 4109 CPM | Specific Binding ([6]; MCF-7, 48 Hr): 731 CPM

^111In-Cl
growth rate (mm/day) of angiogenic vascular tissue ([7]; 14-day incubation, FIG. 20): substantially below that of the control | % initiation of angiogenic growth ([7]; 14 days, FIG. 18): substantially less than the control plate | vessel area (mm^2) of sprouting tissue ([7]; 14 days, FIG. 19): substantially less

CC(C)[C@@H]1NC(=O)[C@H](CCCCN)NC(=O)[C@@H](Cc2c[nH]c3ccccc23)NC(=O)[C@H](Cc2ccc(O)cc2)NC(=O)[C@@H](NC(=O)[C@H](N)Cc2ccc3ccccc3c2)CSSC[C@@H](C(=O)N[C@H](C(N)=O)[C@@H](C)O)NC1=O [lanreotide]
biologic half-life [8]: 60-90 min

D-Lys-D-Tyr-D-Lys-D-Tyr-D-Lys-C[Cys-Phe-D-Trp-Lys-Thr-Cys]-Thr-NH2 [^125I-JIC-2D]
binding and internalization [9]: the vast majority of the radioligand was internalized into the cell
